From ChEMBL document CHEMBL5113512, “β-Nitrostyrene derivatives as broad range potential antifungal agents targeting fungal cell wall” (2022) come the findings set out here.

Converted amounts (≈) assume the structure as drawn. The source made the active and inactive calls. No cut-off for these calls is given here. Where only a bound is given, the exact number is not on record here.

In test [1] the test system is Candida. Briefly: Downregulation of CDC15 gene expression in Candida cells. The test is classed as functional, cell-based.
For test [2], the system named is Candida albicans. Briefly: Antifungal activity against wild type Candida albicans SN152 assessed as inhibition of fungal growth by broth microdilution method. The format is functional. A general note: Broth dilution looks for growth in wells or tubes with falling amounts of substance.
Test [3] deals with Candida. Briefly: Downregulation of STT4 gene expression in Candida cells. The format is functional, cell-based.
Test [4] relates to Candida. Briefly: Downregulation of CDC42 gene expression in Candida cells. The format is functional, cell-based.
Test [5] has as its system Candida. The test is described as follows: Downregulation of CDC4 gene expression in Candida cells. The test is classed as functional, cell-based.
Test [6] concerns Candida albicans. Briefly: Antifungal activity against Candida albicans SN152 harboring CAS5 mutant assessed as inhibition of fungal growth by broth microdilution method. The test is classed as functional.
Test [7] concerns Candida. Briefly: Downregulation of GUT1 gene expression in Candida cells. The test is classed as functional, cell-based.
Test [8] deals with [Candida] auris. Briefly: Antifungal activity against wild type Candida auris 102 assessed as inhibition of fungal growth by broth microdilution method. The following applies: Candidozyma auris. The format is functional.
The subject of test [9] is Candida albicans. The test is described as follows: Antifungal activity against Candida albicans ATCC 24433 overexpressing transporter protein GU4 assessed as inhibition of fungal growth by broth microdilution method. The test is classed as functional.
Test [10] deals with Cell membrane. The test is described as follows: Disruption of membrane integrity in Candida albicans ATCC 24433 assessed as cell deformation measured after 30 mins by SEM analysis. The test is classed as subcellular.
Test [11] concerns Candida albicans. Briefly: Antifungal activity against Candida albicans ATCC 24433 overexpressing ADPDR5-GFP assessed as inhibition of fungal growth by broth microdilution method. The format is functional.
The test system of test [12] is Candida albicans. Briefly: Inhibition of drug efflux in Candida albicans ATCC 24433 overexpressing AD(1-8)u- assessed as […] in nile red efflux incubated for 30 mins by flow cytometry. The format is functional. On the technique in general: Flow cytometry measures light scatter and fluorescence of single cells or particles in a stream.
The test system of test [13] is Cell membrane. The test is described as follows: Disruption of membrane integrity in Candida auris CBS10913 assessed as cell shrinkage and lysis by measuring leakage of intracellular material measured after 6 hrs by SEM analysis. The conditions noted are these: Candidozyma auris.
The subject of test [14] is Nakaseomyces glabratus. The test is described as follows: Antifungal activity against Candida glabrata ATCC 2001 assessed as inhibition of fungal growth by broth microdilution method. The test is classed as functional.
For test [15], the system named is [Candida] auris. The test is described as follows: Antifungal activity against Candida auris 118 assessed as inhibition of fungal growth by broth microdilution method. The format is functional. The following applies: Candidozyma auris.
Test [16] relates to Candida albicans. The test is described as follows: Synergistic antifungal activity against Candida albicans ATCC 24433 overexpressing ADCaMDR1-GFP assessed as fractional inhibitory concentration index incubated for 48 hrs in presence of caspofungin by checker board assay. The test is classed as functional.
Test [17] has as its system Candida albicans. Briefly: Antifungal activity against Candida albicans ATCC 24433 overexpressing transporter protein F5 assessed as inhibition of fungal growth by broth microdilution method. The format is functional.
Test [18] deals with [Candida] auris. Briefly: Antifungal activity against Candida auris 102 assessed as inhibition of fungal growth by broth microdilution method. The test is classed as functional. The conditions noted are these: Candidozyma auris.
Test [19] deals with Candida albicans. Briefly: Antifungal activity against Candida albicans ATCC 24433 overexpressing ADCaMDR1-GFP assessed as inhibition of fungal growth by broth microdilution method. The format is functional.
Test [20] relates to Candida tropicalis. The test is described as follows: Antifungal activity against Candida tropicalis ATCC 750 assessed as inhibition of fungal growth by broth microdilution method. The test is classed as functional.
Test [21] relates to Candida albicans. The test is described as follows: Antifungal activity against Candida albicans ATCC 24433 overexpressing transporter protein GU5 assessed as inhibition of fungal growth by broth microdilution method. The test is classed as functional.
The test system of test [22] is Candida albicans. The test is described as follows: Induction of ROS generation in Candida albicans ATCC 24433 at sub-inhibitory concentration incubated for 1 hr by DCFDA staining-based flow cytometric analysis. The format is functional, organism-based.
The test system of test [23] is Candida albicans. Briefly: Inhibition of drug efflux in Candida albicans ATCC 24433 overexpressing ADPDR5-GFP assessed as reduction in rhodamine 6g efflux preincubated for 45 mins followed by substrate addition and measured after 30 mins. The format is functional. The conditions noted are these: dose 0.1-100 µg/ml, time 75.0 min, DDE = dose-dependent effect.
Test [24] concerns [Candida] auris. Briefly: Antifungal activity against Candida auris 105 assessed as inhibition of fungal growth by broth microdilution method. The conditions noted are these: Candidozyma auris. The test is classed as functional.
Test [25] deals with Cell membrane. Briefly: Disruption of membrane integrity in Candida albicans ATCC 24433 assessed as cell surface perturbations measured after 3 hrs by SEM analysis.
In test [26] the test system is Candida albicans. The test is described as follows: Antifungal activity against Candida albicans ATCC 24433 overexpressing AD(1-8)u-assessed as inhibition of fungal growth by broth microdilution method. The test is classed as functional.
For test [27], the system named is Candida albicans. Briefly: Inhibition of drug efflux in Candida albicans ATCC 24433 overexpressing ADCaMDR1-GF assessed as […] in nile red efflux incubated for 30 mins by flow cytometry. The format is functional.
Test [28] has as its system [Candida] auris. The test is described as follows: Induction of ROS generation in Candida auris CBS10913 at sub-inhibitory concentration incubated for 1 hr by DCFDA staining-based flow cytometric analysis. The test is classed as functional, organism-based. The following applies: Candidozyma auris.
For test [29], the system named is Candida albicans. The test is described as follows: Inhibition of drug efflux in Candida albicans ATCC 24433 overexpressing ADCDR1-GFP assessed as reduction in rhodamine 6g efflux preincubated for 45 mins followed by substrate addition and measured after 30 mins. The conditions noted are these: dose 0.1-100 µg/ml, time 75.0 min, DDE = dose-dependent effect. The format is functional.

Test [30] relates to Candida albicans. Briefly: Antifungal activity against Candida albicans ATCC 24433 overexpressing ADCDR1-GFP assessed as inhibition of fungal growth by broth microdilution method. The test is classed as functional.
The subject of test [31] is Candida albicans. Briefly: Synergistic antifungal activity against Candida albicans ATCC 24433 overexpressing ADCDR1-GFP assessed as fractional inhibitory concentration index incubated for 48 hrs in presence of caspofungin by checker board assay. The test is classed as functional.
Test [32] relates to Candida parapsilosis. Briefly: Antifungal activity against Candida parapsilosis ATCC 90018 assessed as inhibition of fungal growth by broth microdilution method. The format is functional. The conditions noted are these: Lodderomyces parapsilosis.
Test [33] has as its system Candida albicans. The test is described as follows: Induction of ROS generation in Candida albicans ATCC 24433 assessed as increase in relative fluorescence unit at sub-inhibitory concentration incubated for 1 hr by DCFDA staining-based flow cytometric analysis. The test is classed as functional, organism-based.
Test [34] deals with Candida albicans. Briefly: Antifungal activity against Candida albicans ATCC 24433 assessed as inhibition of fungal growth by broth microdilution method. The format is functional.
In test [35] the test system is Cell membrane. The test is described as follows: Disruption of membrane integrity in Candida auris CBS10913 assessed as cell surface perturbations measured after 3 hrs by SEM analysis. The format is subcellular. The following applies: Candidozyma auris.
For test [36], the system named is Candida albicans. The test is described as follows: Synergistic antifungal activity against Candida albicans ATCC 24433 overexpressing ADPDR5-G assessed as fractional inhibitory concentration index incubated for 48 hrs in presence of caspofungin by checker board assay. The format is functional.
Test [37] relates to Candida albicans. Briefly: Synergistic antifungal activity against Candida albicans ATCC 24433 assessed as fractional inhibitory concentration index incubated for 48 hrs in presence of caspofungin by checker board assay. The test is classed as functional.
Test [38] concerns Candida albicans. The test is described as follows: Fungicidal activity against Candida albicans ATCC 24433 assessed as reduction in fungal growth by measuring reduction in colony count at sub-MIC concentration measured after 48 hrs by time kill assay. The test is classed as functional, organism-based.
In test [39] the test system is [Candida] auris. Briefly: Induction of ROS generation in Candida auris CBS10913 assessed as increase in relative fluorescence unit at sub-inhibitory concentration incubated for 1 hr by DCFDA staining-based flow cytometric analysis. The conditions noted are these: Candidozyma auris. The format is functional, organism-based.
Test [40] has as its system Cell membrane. Briefly: Disruption of membrane integrity in Candida albicans ATCC 24433 assessed as cell shrinkage and lysis by measuring leakage of intracellular material measured after 6 hrs by SEM analysis. The test is classed as subcellular.
The test system of test [41] is Candida albicans. Briefly: Antifungal activity against Candida albicans ATCC 24433 overexpressing transporter protein F2 assessed as inhibition of fungal growth by broth microdilution method. The test is classed as functional.

By MIC80 is commonly meant the lowest concentration that inhibits either 80% of growth or 80% of the strains tested, depending on the study. As for `CC[C@H](C)C[C@H](C)CCCCCCCCC(=O)N[C@H]1C[C@@H](O)[C@@H](NCCN)NC(=O)[C@@H]2[C@@H](O)CCN2C(=O)[C@H]([C@H](O)CCN)NC(=O)[C@H]([C@H](O)[C@@H](O)c2ccc(O)cc2)NC(=O)[C@@H]2C[C@@H](O)CN2C(=O)[C@H]([C@@H](C)O)NC1=O` [CASPOFUNGIN], the outcome in test [1], in test [3], in [4], in [5] and in test [7] was Active. Further, the MIC80 in [2] worked out at 0.125 µg/mL (≈ 0.114 µM); in [6] it was 0.0156 µg/mL (≈ 0.0143 µM).

Consider `CC/C(=C\c1ccc(OC)cc1)[N+](=O)[O-]`, for which the MIC80 amounted to 8 µg/mL (≈ 38.6 µM) in [2]; 2 µg/mL (≈ 9.65 µM) in test [8]; 4 µg/mL (≈ 19.3 µM) in test [9]; 2 µg/mL (≈ 9.65 µM) in [11]; 4 µg/mL (≈ 19.3 µM) in [14]; 4 µg/mL (≈ 19.3 µM) in test [15]. For the same compound, the MIC80 in test [17] stood at 2 µg/mL (≈ 9.65 µM); in test [18], 4 µg/mL (≈ 19.3 µM); in [19], 2 µg/mL (≈ 9.65 µM); in test [20], 2 µg/mL (≈ 9.65 µM); in test [21] it was 4 µg/mL (≈ 19.3 µM); in test [24], 2 µg/mL (≈ 9.65 µM). Further, the MIC80 in [26] worked out at 4 µg/mL (≈ 19.3 µM); in test [30] it was 4 µg/mL (≈ 19.3 µM); in [32] it was 8 µg/mL (≈ 38.6 µM); in [34], 4 µg/mL (≈ 19.3 µM); in test [6], 2 µg/mL (≈ 9.65 µM); in test [41] it was 2 µg/mL (≈ 9.65 µM). Also, the outcome in test [10], in test [13], in [22], in test [25], in [28] and in test [33] was Active. Further, the result in test [35], in [38], in test [39] and in [40] was Active. Besides, the inhibition result in [12] and in test [27] was “Active” throughout. The “fractional inhibitory concentration index (FICI)” value in test [16] is recorded as below 0.5; in [31], below 0.5; in test [36], below 0.5; in [37], below 2.5. For the same compound, the inhibition entry in test [23] and in test [29] was “Dde” in each case.
